What was measured:
Type in all cases: functional
L6 [1] = experiment: Induction of glucose uptake in rat L6 myoblasts at 20 uM measured after 2 hrs by liquid scintillation counter
L6 [2] = experiment: Induction of glucose uptake in rat L6 myoblasts assessed as 2-DG concentration at 25 uM preincubated for 3 hrs and in presence of 2-deoxyglucose measured after 1 hrs by DNTB reagent based colorimetric assay; details: time 4 hrs
L6 [3] = experiment: Induction of glucose uptake in rat L6 myoblasts at 3 uM measured after 2 hrs by liquid scintillation counter

Row | Structure (SMILES) | Activity (L6 [1]) | Activity (L6 [2]) | Activity (L6 [3])
1 | COc1ccc2c(c1)[C@H]1[C@H](CCN1C(=O)Cc1ccc(Cl)cc1)[C@H]1CCCN21 (racemic) | 98.1% | 33.1 pmol/µL | 
2 | COc1ccc2c(c1)[C@H]1[C@H](CCN1Cc1ccc(C)cc1)CN2C (racemic) | 80.6% |  | 
3 | Cc1ccc(CN2CC[C@@H]3[C@H]4CCCN4c4ccccc4[C@@H]32)cc1 (racemic) | 155.4% |  | 
4 | COc1ccc2c(c1)[C@H]1[C@H](CCN1C(=O)c1ccc(O)cc1)[C@H]1CCCN21 (racemic) | 86.7% |  | 
5 | COc1ccc(N2CC[C@@H]3[C@@H]4CCCN4c4ccc(OC)cc4[C@@H]32)cc1 (racemic) | 46.2% |  | 
6 | COc1cc2c(cc1OC)N1CCC[C@@H]1[C@H]1CCN(Cc3ccc(C)cc3)[C@@H]21 (racemic) | 34.2% |  | 
7 | COc1ccc2c(c1)[C@H]1[C@H](CCN1CCc1ccccc1)[C@H]1CCCN21 (racemic) | 55.9% | 23.4 pmol/µL | 
8 | Cc1cccc(N2CC[C@@H]3[C@H]4CCCN4c4cc(C)ccc4[C@@H]32)c1 (racemic) | 76.4% |  | 
9 | Cc1ccc(CN2CC[C@@H]3[C@H]4CCCN4c4ccc(C)cc4[C@@H]32)cc1 (racemic) | 149.2% | 59.6 pmol/µL | 
10 | COc1cccc(N2CC[C@@H]3[C@H]4CCCN4c4cc(OC)ccc4[C@@H]32)c1 (racemic) | 22.4% |  | 
11 | COc1ccc(N2CC[C@@H]3[C@H]4CCCN4c4ccc(OC)cc4[C@@H]32)cc1 (racemic) | 142.6% |  | 
12 | COc1ccc2c(c1)[C@H]1[C@H](CCN1CCc1ccc(C)cc1)[C@H]1CCCN21 (racemic) | 86.3% |  | 
13 | COc1ccccc1N1CC[C@@H]2[C@H]3CCCN3c3c(OC)cccc3[C@@H]21 (racemic) | 109.5% |  | 
14 | COc1cc(C[C@H]2C(=O)OC[C@@H]2Cc2ccc(OC)c(OC)c2)ccc1O [ARCTIGENIN] |  | 23.5 pmol/µL | 146%
